A value given as a limit tells only on which side of the number the result lay.

The target in this test is T1, EBP (Homo sapiens, UniProt Q15125).
T1 construct: HEK293T cells were utilized as the source of EBP enzyme; endogenous in cells; host or cells: HEK293T
T1 sequence (Q15125 whole entry): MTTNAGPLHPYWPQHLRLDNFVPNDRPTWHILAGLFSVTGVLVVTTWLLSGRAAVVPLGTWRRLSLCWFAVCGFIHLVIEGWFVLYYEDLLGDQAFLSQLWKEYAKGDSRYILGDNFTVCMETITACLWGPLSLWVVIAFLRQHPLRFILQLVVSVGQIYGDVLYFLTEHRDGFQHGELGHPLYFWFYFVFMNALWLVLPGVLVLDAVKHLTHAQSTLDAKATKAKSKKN
Put plainly: EBP Functional Assay (EBP immunoaffinity LC-MS assay). To be noted: HEK293T cells as source of EBP enzyme; 30 min with inhibitor, then zymosterol-d5, 37° C. for 4 h; percent conversion by LC-APCI MRM MS. The test is classed as biochemical. Here is the method:
The EBP immunoaffinity (IA) LC-MS assay measures the potency of small molecule inhibitors of EBP by quantifying their concentration-dependent changes in the enzyme's substrate and product using liquid chromatography atmospheric pressure chemical ionization multiple reaction monitoring mass spectrometry (LC-APCI MRM MS). HEK293T cells were utilized as the source of EBP enzyme. The enzyme was incubated with the small molecule inhibitors at variable concentrations for 30 min. Deuterated form of EBP substrate, zymosterol-d5 (Avanti Polar Lipids, Cat #700068P-1 mg), was then added and the plate was incubated at 37° C. for 4 h. Finally, the sterol isomers were extracted and injected to LC-APCI MRM MS. MRM transition used for the quantification for both zymosterol and dihydrolathosterol (substrate and product of EBP enzymatic reaction, respectively) is 372.3-203.2, CE 30 and DP 80 in positive ion mode. Percent conversion of the zymosterol-d5 to dehydrolathosterol-d5 was used to derive IC50 curves. Tasin-1 (1′-[(4-Methoxyphenyl)sulfonyl]-4-methyl-1,4′-bipiperidine, CAS 792927-06-1) was used as the reference small molecule inhibitor. Percent conversion versus the compound concentration data were fit to the following 4-parameter logistic model to generate IC50 curves: […]
The IC50 is the concentration that inhibits the measured activity by half. Read a low IC50 as inhibition by little substance. Compound `Cc1nc(C(F)(F)F)ccc1S(=O)(=O)N1[C@@H]2CC[C@H]1C[C@H](N1CC3(COC3)C1)C2` (single isomer, unassigned) [Example 22] yielded an IC50 of less than 50 nM.

`O=S(=O)(c1ccc(OC(F)F)cc1)N1C2CCC1CC(N1CC3CC(C3)C1)C2` (stereo not shown) [Example 57, 3-(8-((4-(Difluoromethoxy)phenyl)sulfonyl)-8-azabicyclo[3.2.1]octan-3-yl)-3-azabicyclo[3.1.1]heptane] showed a half-maximal inhibitory concentration (IC50) of 50 to 150 nM.

Compound `Cc1nc(C(F)(F)F)ccc1S(=O)(=O)N1[C@@H]2CC[C@H]1C[C@H](NCC1(C)COC1)C2` (single isomer, unassigned) [Example 26] gave an IC50 of less than 50 nM.

`Cc1nc(C(F)(F)F)ccc1S(=O)(=O)N1[C@@H]2CC[C@H]1C[C@@H](NC1CC3(COC3)C1)C2` (single isomer, unassigned) [Example 69] displayed an IC50 of 50 to 150 nM.

For the compound `O=S(=O)(c1ccc(OC(F)F)cc1)N1C2CCC1CC(N1C3CCCC1CC3)C2` (stereo not shown) [Example 53, 8-((4-(Difluoromethoxy)phenyl)sulfonyl)-8,8′-diaza-3,8′-bi(bicyclo[3.2.1]octane)], the IC50 was in the range of 50 to 150 nM.

With `O=S(=O)(c1c(F)cc(OC(F)F)cc1F)N1[C@@H]2CC[C@H]1C[C@H](CN1CCOCC1)C2` [Example 35, 4-(((1R,3s,5S)-8-((4-(Difluoromethoxy)-2,6-difluorophenyl)sulfonyl)-8-azabicyclo[3.2.1]octan-3-yl)methyl)morpholine], the IC50 was less than 50 nM.

Compound `COC(C)C(C)NC1CC2CCC(C1)N2S(=O)(=O)c1ccc(OC(F)F)cc1` (stereo not shown) [Example 55, 8-((4-(Difluoromethoxy)phenyl)sulfonyl)-N-(3-methoxybutan-2-yl)-8-azabicyclo[3.2.1]octan-3-amine] displayed an IC50 of less than 50 nM.

Take `CC1CCN([C@@H]2C[C@H]3CC[C@@H](C2)N3S(=O)(=O)c2ccc3c(c2)COCC3)CC1` [Example 7, (1R,3s,5S)-8-(Isochroman-7-ylsulfonyl)-3-(4-methylpiperidin-1-yl)-8-azabicyclo[3.2.1]octane]: the IC50 is less than 50 nM.

`CC1CCN([C@@H]2C[C@H]3CC[C@@H](C2)N3S(=O)(=O)c2cn(-c3ccccc3)nn2)CC1` [Example 44, (1R,3s,5S)-3-(4-Methylpiperidin-1-yl)-8-((1-phenyl-1H-1,2,3-triazol-4-yl)sulfonyl)-8-azabicyclo[3.2.1]octane] came in with an IC50 of 150 to 2000 nM.

As for `COCn1ncc(Cl)c1S(=O)(=O)N1[C@@H]2CC[C@H]1C[C@H](N1CCC(C)CC1)C2` [Example 4, (1R,3s,5S)-8-((4-Chloro-1-(methoxymethyl)-1H-pyrazol-5-yl)sulfonyl)-3-(4-methylpiperidin-1-yl)-8-azabicyclo[3.2.1]octane], the IC50 is less than 50 nM.

For the compound `Cc1nc(C(F)(F)F)ccc1S(=O)(=O)N1[C@@H]2CC[C@H]1C[C@@H](N1CC3(COC3)C1)C2` (single isomer, unassigned) [Example 23], the IC50 was less than 50 nM.

In turn, `CN(C1CCOCC1)[C@H]1C[C@H]2CC[C@@H](C1)N2S(=O)(=O)c1ccc(OC(F)F)cc1` [Example 65, (1R,3r,5S)-8-((4-(difluoromethoxy)phenyl)sulfonyl)-N-methyl-N-(tetrahydro-2H-pyran-4-yl)-8-azabicyclo[3.2.1]octan-3-amine] gave a half-maximal inhibitory concentration (IC50) of less than 50 nM.

In the case of `O=S(=O)(c1ccc(OC(F)F)cc1)N1C2CCC1CC(NC1CCOCC1)C2` (stereo not shown) [Example 73, 8-((4-(Difluoromethoxy)phenyl)sulfonyl)-N-(tetrahydro-2H-pyran-4-yl)-8-azabicyclo[3.2.1]octan-3-amine], the IC50 is less than 50 nM.

Take `O=S(=O)(c1ccc(OC(F)F)cc1)N1C2CCC1CC(NC[C@H]1C[C@H]1CO)C2` (mixture of isomers) [Example 56, rac-((1R,2S)-2-(((8-((4-(Difluoromethoxy)phenyl)sulfonyl)-8-azabicyclo[3.2.1]octan-3-yl)amino)methyl)cyclopropyl)methanol]: the IC50 lay in the range of 150 to 2000 nM.

For the compound `O=S(=O)(c1ccc(OC(F)F)cc1)N1C2CCC1CC(N1CC3CCC(C3)C1)C2` (stereo not shown) [Example 58, 8′-((4-(Difluoromethoxy)phenyl)sulfonyl)-3,8′-diaza-3,3′-bi(bicyclo[3.2.1]octane)], the IC50 was less than 50 nM.

Regarding `CN(C1CCOCC1)[C@@H]1C[C@H]2CC[C@@H](C1)N2S(=O)(=O)c1ccc(OC(F)F)cc1` [Example 66, (1R,3s,5S)-8-((4-(difluoromethoxy)phenyl)sulfonyl)-N-methyl-N-(tetrahydro-2H-pyran-4-yl)-8-azabicyclo[3.2.1]octan-3-amine], the IC50 was in the range of 150 to 2000 nM.

Consider `O=S(=O)(c1ccc(OC(F)F)cc1)N1[C@@H]2CC[C@H]1C[C@](O)(CN1CCOCC1)C2` [Example 33, (1R,3r,5S)-8-((4-(Difluoromethoxy)phenyl)sulfonyl)-3-(morpholinomethyl)-8-azabicyclo[3.2.1]octan-3-ol], for which the IC50 was less than 50 nM.

On to `CC1CCN([C@@H]2C[C@H]3CC[C@@H](C2)N3S(=O)(=O)c2csc(C(F)(F)F)n2)CC1` [Example 42, 4-(((1R,3s,5S)-3-(4-Methylpiperidin-1-yl)-8-azabicyclo[3.2.1]octan-8-yl)sulfonyl)-2-(trifluoromethyl)thiazole], for which the IC50 was in the range of 150 to 2000 nM.

The compound `Cc1noc(C)c1S(=O)(=O)N1[C@@H]2CC[C@H]1C[C@H](CN1CCOCC1)C2` [Example 38, 4-(((1R,3s,5S)-8-((3,5-Dimethylisoxazol-4-yl)sulfonyl)-8-azabicyclo[3.2.1]octan-3-yl)methyl)morpholine] showed an IC50 of less than 50 nM.

Consider `O=S(=O)(c1ccc(OC(F)F)cc1)N1C2CCC1CC(N1C3CCCC1CC(F)(F)C3)C2` (stereo not shown) [Example 16, 9-(8-((4-(Difluoromethoxy)phenyl)sulfonyl)-8-azabicyclo[3.2.1]octan-3-yl)-3,3-difluoro-9-azabicyclo[3.3.1]nonane], for which the half-maximal inhibitory concentration (IC50) is less than 50 nM.

Compound `CCn1nccc1S(=O)(=O)N1[C@@H]2CC[C@H]1C[C@H](N1CCC(C)CC1)C2` [Example 13, (1R,3s,5S)-8-((1-Ethyl-1H-pyrazol-5-yl)sulfonyl)-3-(4-methylpiperidin-1-yl)-8-azabicyclo[3.2.1]octane] came in with an IC50 of less than 50 nM.

`O=S(=O)(c1ccc(OC(F)F)cc1)N1[C@@H]2CC[C@H]1C[C@H](NCC1COC1)C2` [Example 31, (1R,3s,5S)-8-((4-(Difluoromethoxy)phenyl)sulfonyl)-N-(oxetan-3-ylmethyl)-8-azabicyclo[3.2.1]octan-3-amine] registered an IC50 of less than 50 nM.

Take `O=S(=O)(c1ccc(OC(F)F)cc1)N1C2CCC1CC(NCC1CCOCC1)C2` (stereo not shown) [Example 19, 8-((4-(Difluoromethoxy)phenyl)sulfonyl)-N-((tetrahydro-2H-pyran-4-yl)methyl)-8-azabicyclo[3.2.1]octan-3-amine]: the IC50 is less than 50 nM.

In the case of `Cc1ccc(S(=O)(=O)N2[C@@H]3CC[C@H]2C[C@H](N2CCC(C)CC2)C3)c(C)n1` [Example 47, (1R,3s,5S)-8-((2,6-Dimethylpyridin-3-yl)sulfonyl)-3-(4-methylpiperidin-1-yl)-8-azabicyclo[3.2.1]octane], the IC50 lay in the range of 50 to 150 nM.

As to `Cc1ccnc(-n2cc(S(=O)(=O)N3[C@@H]4CC[C@H]3C[C@H](N3CCC(C)CC3)C4)cn2)c1` [Example 41, (1R,3s,5S)-3-(4-Methylpiperidin-1-yl)-8-((1-(4-methylpyridin-2-yl)-1H-pyrazol-4-yl)sulfonyl)-8-azabicyclo[3.2.1]octane], the IC50 was less than 50 nM.
